One substance from patent US9873724B2, “Pro-angiogenic peptides and peptide conjugates” (Yissum Research Development Company of the Hebrew …, priority 2013, dated 2018) can be followed below.

Experiment [1] deals with blood vessels of mice (Evans-Blue leakage). The experiment can be described thus: Inhibition of blood-vessel leakiness (Evans-Blue leakage in mice). The experiment is classed as in vivo, mouse. The procedure:
The peptide of SEQ ID NO: 12 (Myr-Gly-Nle-Arg-Pro-Tyr-NH2), or vehicle (10% PEG-400, 90% DDW), were injected i.p. to mice, in an amount of 20 or 40 mg/Kg. 5 min, 10 min, 1 hr or 4 hrs later, 0.2 ml per 25 g mouse (40 mg/Kg) of 5 mg/ml Evans-Blue solution in double distilled water (DDW) was injected i.p. The experiment was terminated after 30 min and skull was opened to view the brain surface (“Neurosurgery”) and assess the amount of Evans-Blue leaking from blood vessels.
Principle of peripheral vessels staining: Evans-Blue; it is a poly-anionic compound having a M.W. of 960 Dalton, that binds tightly to albumin and being used to track vessel-permeability. In case of blood-vessel leakiness, the Evans-Blue-albumin complex escapes from the blood-stream into the surrounding interstitial fluid with the result of blue coloring of the extremities and the bluish appearance at the brain surface.
In a specific experiment, 40 mg/kg of peptide of SEQ ID NO: 12 or vehicle were injected, each to 2 mice, i.p. 5 min before color injection. Evans-blue, at 40 mg/kg was then injected i.p. and 30 min later “Neurosurgery” was performed and the escape of the color from the blood stream was monitored as manifested by the bluish appearance of the brain surrounding tissue.
In another experiment, 40 mg/kg of peptide SEQ ID NO: 12 were injected to mice, i.p. 1 or 4 hours before color injection (Evans-blue, 40 mg/kg i.p. for 30 minutes). Control mice received i.p. injection of vehicle ([…]) 1 hour before color injection.

A further experiment relates to mouse aortic rings. The experiment can be described thus: Aortic ring assay ex-vivo (capillary sprouting from mouse aortic rings in collagen; repeated with VEGF). The experiment is classed as cell-based. Also noted: Capillary length 10 μM (10 μM) / Capillary length 20 μM / Capillary length 10 μM: unit not given here. On the procedure: Thoracic aortas were dissected from 7- to 8-week-old male SABRA mice. The aortas were immediately transferred to Petri dishes containing BIO-MPM-1. The adventitia and small vessels around the aorta were carefully removed under a dissecting microscope, and transverse cuts of 0.75 mm were made. The resulting aortic rings were extensively rinsed and incubated overnight in BIO-MPM-1 containing penicillin-streptomycin. Subsequently, the rings were embedded in 50 μl collagen mix (7 parts collagen, 1 part 10× Eagle minimal essential medium, MEM, and 2 parts 0.15 M sodium bicarbonate) in 96-well plates (Nunc, Rochester, N.Y.). Solidification of the collagen solution was achieved by raising the pH to neutral and the temperature to 37° C. 150 μl BIO-MPM-1 containing penicillin-streptomycin and the tested factors or peptides) was added to the embedded rings, and the plates were incubated at 37° C. in a humidified 10% CO2 atmosphere. Medium containing factors and/or peptides was refreshed at days 4 and 8. After two weeks, the rings were fixed with 4% formaldehyde for 24 hours, followed by staining with crystal violet (0.02%) dissolved in ethanol and extensive washing to remove excessive stain. The effect of factors and peptides was examined in 4 wells (4 rings of mouse aortic rings) per assay. Micrographs of representative rings were taken using a digital camera (Nikon, Tokyo, Japan). Morphometric analysis of sprouting was performed manually using Image-Pro 4.5 software (Media Cybernetics, Silver Spring, Md.) according to Nissanov et al. (Lab Invest. 1995; 73:734-739). Nonstained rings were subjected to paraffin sections and hematoxylin and eosin (H&E) staining.
FIGS. 1A-1C represents aortic ring capillary length and FIGS. 2A-2C aortic ring capillary width. In the table: K-Flu is a Lysine residue coupled with a fluorescein moiety, 4BrPhe is 4-bromo-Phenylalanine, Dod is Dodecanoyl, Dec designates Decanoyl, Oct is Octanoyl, and Hex is Hexanoyl.
The aortic ring assay was repeated in the presence of 10 μM concentration of peptides AB-033 (SEQ ID NO: 13) and AB-034 (SEQ ID NO: 14) together with the pro-angiogenetic protein VEGF.

“And” between values parts separate entries of the source, which are not always exact repeats. Equal values may be shown once. Square brackets hold non-standard residues; d marks the D form. * marks the point of attachment. Myristoyl = CCCCCCCCCCCCCC(=O)*; Nle = CCCC[C@H](N)C(=O)O

“Myr-Gly-Nle-Arg-Pro-Tyr-NH2 (Myristoyl-G[Nle]RPY-NH2; SMILES CCCCCCCCCCCCCC(=O)NCC(=O)N[C@@H](CCCC)C(=O)N[C@@H](CCCNC(=N)N)C(=O)N1CCC[C@H]1C(=O)N[C@@H](Cc1ccc(O)cc1)C(N)=O) [AB-017]”: in experiment [1] (20 mg/kg i.p. 10 min before Evans-blue 40 mg/kg i.p., 30 minutes), the “Evans-Blue leaking from blood vessels (brain and periphery)” value was “no color was leaking”. The “Evans-Blue leaking from blood vessels (brain)” value was “no color was leaking” in experiment [1] (40 mg/kg i.p. 5 min before Evans-blue 40 mg/kg i.p., read 30 min later); “no color was leaking” in experiment [1] (40 mg/kg i.p. 1 hr before Evans-blue 40 mg/kg i.p., 30 minutes); “only a partial protection” in experiment [1] (40 mg/kg i.p. 4 hrs before Evans-blue 40 mg/kg i.p., 30 minutes). Moreover, the “capillary / vessel formation (in words)” value in the experiment with mouse aortic rings (aortic ring assay, FIGS. 1A-1C and 2A-2C) is listed as “induce massive capillary formation”. In the experiment with mouse aortic rings (peptide 10 μM, rings fixed after two weeks), the “Capillary length 10 μM” value is 3,100 and 3,770. Besides, the “Capillary length 20 μM” value in the experiment with mouse aortic rings (peptide 20 μM, rings fixed after two weeks) is 11,200 and 15,300.
